In patent US9650399B2, “Salicylic acid derivatives, pharmaceutically acceptable salt thereof, composition thereof and method of use thereof” (The Governing Council of the University of Toronto, priority 2012, dated 2017):
Entries after “also recorded” stand apart in the source; their conditions may differ.

Assays:
ERK1 = biological target: T1, ERK1 (Homo sapiens, UniProt P27361); experiment: HotSpot radiometric kinase assay, ERK1; assay type: biochemical; details: 5 uM compound, 10 μM ATP, duplicate (Data 1, Data 2); for remaining activity at 5 µM: read-out: % Enzyme activity relative to DMSO (control), ERK1
T1 construct: purchased Reaction Biology Corporation

[1] = system: leukemia cancer cells (AML-2); experiment: IC50 in leukemia cancer cells; assay type: cell-based; details: Table 6
JAK1 = biological target: T2, JAK1 (Homo sapiens, UniProt P23458); experiment: HotSpot radiometric kinase assay, JAK1; assay type: biochemical; details: 5 uM compound, 10 μM ATP, duplicate (Data 1, Data 2); for remaining activity at 5 µM: read-out: % Enzyme activity relative to DMSO (control), JAK1
T2 construct: purchased Reaction Biology Corporation
Protocol: Briefly, this assay employs a radiometric detection system to measure kinase phosphoryl transfer activity.
Test compound was evaluated at a single dose of 5 μM in duplicate mode. […] Reactions were carried out at 10 μM ATP.
Preliminary screen against AKT, c-Src, ERK1, JaK1 and JaK2 was performed at Reaction Biology Corporation (www.reactionbiology.com, Malvern, Pa.) using the “HotSpot” assay platform. Specific kinase/substrate pairs along with their required cofactors were prepared in reaction buffer; 20 mM Hepes pH 7.5, 10 mM MgCl2, 1 mM EGTA, 0.02% Brij35, 0.02 mg/ml BSA, 0.1 mM Na3VO4, 2 mM DTT, 1% DMSO. The screen was completed in duplicate at a single concentration of 5 μM. The reaction well with the subject compound was treated with a mixture of ATP (Sigma, St. Louis Mo.) and ^33P ATP (Perkin Elmer, Waltham Mass.) to a final concentration of 10 μM. […] Reaction wells were kept at room temperature for 120 minutes, followed by spotting each of the reactions onto P81 ion exchange filter paper (Whatman Inc., Piscataway, N.J.). […] Background was subtracted using control reactions and the kinase activity data was expressed as the percent remaining kinase activity in test samples compared to vehicle (dimethyl sulfoxide) reactions. All IC50 values (table 3) and curve fitting were produced using Prism (GraphPad Software) (FIG. 5).

BTSCs = experiment: alamarBlue cytotoxicity across BTSC lines; assay type: cell-based, human; details: Homo sapiens; for EC50: read-out: EC50s across all 8 BTSCs evaluated; for IC50: read-out: IC50 values of the top four ranked compounds against BTSCs
Protocol: First, the library was screened for biological activity against a set of three representative GBM BTSCs derived from GBM patients, including the very aggressive GBM BTSC lines, BTSC73M, BTSC30M, BTSC68EF. Dissociated BTSC spheres were seeded at 1500 cells/96-well and treated with drug compound or vehicle (DMSO) one day after plating. Cell viability following drug treatment was assessed after 72 hrs using the ALAMARBLUE™ assay (Invitrogen) according to the manufacturer's instructions. All culture experiments were performed in triplicate with a minimum of three wells per condition.
BTSC spheres were dissociated to single cells with the enzyme Accumax (Innovative Technologies), seeded at 1500 cells/96-well and treated with drug or vehicle (DMSO) one day after plating. […] BTSC spheres were dissociated to single cells as above and plated in 96 well plates in triplicate at 3000 cells/96-well. […] Cell viability following drug treatment was assessed three days later using the ALAMARBLUE™ assay (Invitrogen) according to the manufacturer's instructions. All culture experiments were performed in triplicate with a minimum of three wells per condition.

[2] = system: Breast cancer cells (MDA-MB-468); experiment: IC50 in breast cancer cells; assay type: cell-based; details: Homo sapiens, Table 6
AKT1 = biological target: T3, AKT1 (Homo sapiens, UniProt P31749); experiment: HotSpot radiometric kinase assay, AKT1; assay type: biochemical; details: 5 uM compound, 10 μM ATP, duplicate (Data 1, Data 2); for remaining activity at 5 µM: read-out: % Enzyme activity relative to DMSO (control), AKT1
T3 construct: purchased Reaction Biology Corporation

101 diverse kinases = experiment: KINOMEscan kinome screen; assay type: binding; details: 500 nM; hit defined as >35% inhibition
Protocol: […] The test compound was evaluated at a single dose of 500 nM. Kinase-tagged T7 phage strains were grown in parallel in 24-well blocks in an E. coli host derived from the BL21 strain. E. coli were grown to the log-phase and were then infected with T7 phage from a frozen stock (multiplicity of infection=0.4) and incubated at 32° C. with shaking until lysis (90-150 minutes). Lysates were centrifuged (6,000×g) and filtered (0.2 μm) to remove any cell debris. The remaining kinases were produced in HEK-293 cells and were then tagged with DNA for easy quantitative PCR (qPCR) detection. […] The liganded beads were blocked with excess biotin and washed with blocking buffer (SeaBlock (Pierce), 1% BSA, 0.05 Tween 20, 1 mM DTT) in order to remove unbound ligand and to also reduce non-specific phage binding. […] All reactions were performed in polypropylene 384-well plates in a final volume of 40 μL. […] Kinase concentration in eluates was measured by qPCR (FIG. 6).

STAT3 SH2 domain = STAT3 SH2 domain (Homo sapiens, UniProt P40763); experiment: fluorescence polarization (FP) assay, STAT3; details: 5-FAM-GpYLPQTV-NH2 probe
Protocol: The buffer used contained 50 mM NaCl, 10 mM Hepes, pH 7.5, 1 mM EDTA and 2 mM dithiothreitol and a final concentration of 5% DMSO.
Test compounds were dissolved in DMSO and diluted using a dilution medium consisting of 50 mM NaCl, 10 mM Hepes, pH 7.5, 1 mM EDTA, and 2 mM dithiothreitol. Fluorescently-labelled pYLPQTV peptide (FAM-pYLPQTV) was kept at a final concentration of 10 nM in the buffered solution.
The midpoint of the saturation curve was used to determine the STAT3 concentration required for the competitive fluorescent polarization assay. […] 7.5 μL of inhibitory molecules (and positive control) solution were individually added to the plate. The final inhibitory concentrations were 100 μL, 50 μL, 25A, 12.5 μL, 6.3 μL, or 3.1 μL. The 10% DMSO buffer solution was incubated for 15-30 minutes before signal measurements by the Infinite M1000.

[3] = system: patient-derived pancreatic cancer line (Panc10.05); experiment: MTS cell survival, pancreatic cancer line; assay type: cell-based; details: Homo sapiens, Panc1005, Panc10.05, 72 h, read-out: ED50 (IC50)
Protocol: Low passage patient-derived pancreatic cancer line (Panc10.05) was plated in 96-well plates (3×10^3 per well) and allowed to attach overnight. STAT3 inhibitors 31, 41, 42 and 38 were added at indicated concentrations. Cell survival was measured 72 h after drug addition with the MTS assay.

[4] = remaining activity, listed as SH-05-07

T1 sequence (P27361 whole entry): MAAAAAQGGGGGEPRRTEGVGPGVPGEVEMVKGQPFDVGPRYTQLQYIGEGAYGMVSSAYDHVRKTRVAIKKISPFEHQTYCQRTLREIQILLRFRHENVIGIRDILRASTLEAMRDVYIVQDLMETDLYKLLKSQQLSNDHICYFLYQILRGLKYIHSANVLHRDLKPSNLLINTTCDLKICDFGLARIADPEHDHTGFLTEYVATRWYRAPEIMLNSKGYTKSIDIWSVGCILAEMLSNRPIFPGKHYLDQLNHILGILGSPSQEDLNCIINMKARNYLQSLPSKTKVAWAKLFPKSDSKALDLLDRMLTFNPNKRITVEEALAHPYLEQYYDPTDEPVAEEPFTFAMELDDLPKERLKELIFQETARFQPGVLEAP
T3 sequence (P31749 whole entry): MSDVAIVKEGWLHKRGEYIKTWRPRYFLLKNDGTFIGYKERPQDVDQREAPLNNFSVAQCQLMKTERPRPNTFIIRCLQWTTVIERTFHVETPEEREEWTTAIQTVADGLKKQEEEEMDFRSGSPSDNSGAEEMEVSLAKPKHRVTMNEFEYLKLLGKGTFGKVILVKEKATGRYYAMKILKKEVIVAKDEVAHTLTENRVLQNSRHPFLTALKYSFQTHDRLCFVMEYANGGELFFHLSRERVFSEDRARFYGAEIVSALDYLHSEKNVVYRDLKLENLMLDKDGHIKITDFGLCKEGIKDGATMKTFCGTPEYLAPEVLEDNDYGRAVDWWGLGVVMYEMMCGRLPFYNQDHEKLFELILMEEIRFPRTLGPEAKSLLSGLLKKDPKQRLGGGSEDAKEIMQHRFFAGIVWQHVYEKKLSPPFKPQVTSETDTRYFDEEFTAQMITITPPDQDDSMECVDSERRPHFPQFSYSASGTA
T2 sequence (P23458 whole entry): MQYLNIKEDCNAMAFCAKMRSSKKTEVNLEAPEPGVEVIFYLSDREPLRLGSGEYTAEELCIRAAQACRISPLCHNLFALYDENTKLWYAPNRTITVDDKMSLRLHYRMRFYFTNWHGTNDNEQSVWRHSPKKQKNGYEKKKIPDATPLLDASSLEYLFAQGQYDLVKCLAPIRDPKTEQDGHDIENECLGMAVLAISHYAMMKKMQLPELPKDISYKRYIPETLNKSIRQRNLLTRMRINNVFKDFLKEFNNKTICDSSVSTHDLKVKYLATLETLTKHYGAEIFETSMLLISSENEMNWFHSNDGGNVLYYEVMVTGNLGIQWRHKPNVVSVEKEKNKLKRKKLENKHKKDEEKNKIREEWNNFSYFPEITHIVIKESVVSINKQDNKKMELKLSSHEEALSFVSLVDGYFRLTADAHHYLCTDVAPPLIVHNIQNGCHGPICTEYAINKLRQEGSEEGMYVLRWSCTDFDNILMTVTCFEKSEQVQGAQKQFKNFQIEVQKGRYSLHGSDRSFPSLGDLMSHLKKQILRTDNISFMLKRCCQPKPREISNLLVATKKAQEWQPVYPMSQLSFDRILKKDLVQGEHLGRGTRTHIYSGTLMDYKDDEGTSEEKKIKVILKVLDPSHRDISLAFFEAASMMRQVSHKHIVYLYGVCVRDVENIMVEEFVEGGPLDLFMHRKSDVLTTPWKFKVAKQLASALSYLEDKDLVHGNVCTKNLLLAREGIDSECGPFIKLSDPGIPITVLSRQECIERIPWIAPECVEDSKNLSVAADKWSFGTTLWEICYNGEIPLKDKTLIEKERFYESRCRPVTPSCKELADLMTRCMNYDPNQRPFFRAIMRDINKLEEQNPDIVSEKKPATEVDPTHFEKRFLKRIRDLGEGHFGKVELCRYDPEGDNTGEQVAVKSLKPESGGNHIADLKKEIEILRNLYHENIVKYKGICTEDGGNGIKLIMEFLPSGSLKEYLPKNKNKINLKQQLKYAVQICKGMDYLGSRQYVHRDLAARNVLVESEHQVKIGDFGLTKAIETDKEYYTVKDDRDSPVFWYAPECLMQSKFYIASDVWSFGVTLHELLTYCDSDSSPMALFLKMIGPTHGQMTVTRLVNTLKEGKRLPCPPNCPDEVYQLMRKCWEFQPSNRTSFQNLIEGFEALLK
STAT3 SH2 domain, sequence (P40763 whole entry, the tested form may be a part): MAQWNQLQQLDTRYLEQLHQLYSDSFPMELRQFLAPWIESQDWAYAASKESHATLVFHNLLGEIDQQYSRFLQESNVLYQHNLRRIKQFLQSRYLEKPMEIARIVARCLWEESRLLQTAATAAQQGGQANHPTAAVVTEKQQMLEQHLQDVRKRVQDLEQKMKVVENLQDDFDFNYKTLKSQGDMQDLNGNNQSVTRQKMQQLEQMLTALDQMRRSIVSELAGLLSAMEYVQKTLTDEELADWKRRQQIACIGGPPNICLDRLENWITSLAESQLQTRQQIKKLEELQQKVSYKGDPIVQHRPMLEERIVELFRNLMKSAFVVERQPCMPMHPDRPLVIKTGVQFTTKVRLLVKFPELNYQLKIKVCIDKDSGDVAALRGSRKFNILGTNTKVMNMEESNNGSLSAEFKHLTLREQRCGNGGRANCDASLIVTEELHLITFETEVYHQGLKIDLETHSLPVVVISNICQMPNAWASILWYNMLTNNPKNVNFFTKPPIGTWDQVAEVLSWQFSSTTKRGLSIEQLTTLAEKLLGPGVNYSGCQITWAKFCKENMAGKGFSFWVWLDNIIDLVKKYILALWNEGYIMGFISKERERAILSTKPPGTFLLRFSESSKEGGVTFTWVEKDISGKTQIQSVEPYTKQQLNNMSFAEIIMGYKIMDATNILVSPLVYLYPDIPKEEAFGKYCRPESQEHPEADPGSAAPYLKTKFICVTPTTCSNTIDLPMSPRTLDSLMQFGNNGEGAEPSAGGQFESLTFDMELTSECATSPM

Structure (SMILES) | remaining activity at 5 µM (ERK1) [%] | % Enzyme activity relative to DMSO (control), ERK1 (ERK1; [4]) [%] | IC50 [1] [nM] | remaining activity at 5 µM (JAK1) [%] | % Enzyme activity relative to DMSO (control), JAK1 (JAK1; [4]) [%] | EC50 (BTSCs) [nM] | IC50 (BTSCs) [nM] | IC50 [2] [nM] | remaining activity at 5 µM (AKT1) [%] | % Enzyme activity relative to DMSO (control), AKT1 (AKT1; [4]) [%] | off-target kinase activity, kinome screen (101 diverse kinases) | disruption of STAT3:phosphopeptide interaction / binding activity (in words) (STAT3 SH2 domain) | IC50 [3] [nM]
CN(CC(=O)N(Cc1ccc(C2CCCCC2)cc1)c1ccc(C(=O)NO)cc1)S(=O)(=O)c1c(F)c(F)c(F)c(F)c1F [Compound 32, 4-(N-(4-cyclohexylbenzyl)-2-(2,3,4,5,6-pentafluoro-N-methylphenylsulfonamido)acetamido)-N-hydroxybenzamide] | 110 | 106.21 | < 1000 | 101 | 97.99 | 66 to 1140 | 100 to 3800 | < 1000 | 94.6 | 92.09 | – | – | –
CN(CC(=O)N(Cc1ccc(C2CCCCC2)cc1)c1ccc(C(=O)O)cc1)S(=O)(=O)c1c(F)c(F)c(F)c(F)c1F [Compound 31, 4-(N-(4-cyclohexylbenzyl)-2-(2,3,4,5,6-pentafluoro-N-methylphenylsulfonamido)acetamido)benzoic acid] | 111 | – | < 1000 | 101 | – | 66 to 1140 | 100 to 3800 | < 1000 | 92.1 | – | negligible effects; also recorded: does not inhibit any of the 101 kinases | effectively disrupt STAT3/phosphopeptide interactions | 6200
